Results: paper PMC8007111, “Novel Potent Muscarinic Receptor Antagonists: Investigation on the Nature of Lipophilic Substituents in the 5- and/or 6-Positions of the 1,4-Dioxane Nucleus” (Journal of Medicinal Chemistry, 2020)

Legend:
hM1 mAChR = biological target: T1, hM1 mAChR (Homo sapiens, UniProt P11229); assay: [3H]NMS inhibition radioligand binding, hM1 in CHO-K1 cell membranes; conditions: [3H]NMS, CHO-K1 cell membranes, mean ± S.E.M.
T1 construct: expressed in transfected cells; host or cells: CHO-K1 (membrane preparation)
T1 sequence (P11229 1-460): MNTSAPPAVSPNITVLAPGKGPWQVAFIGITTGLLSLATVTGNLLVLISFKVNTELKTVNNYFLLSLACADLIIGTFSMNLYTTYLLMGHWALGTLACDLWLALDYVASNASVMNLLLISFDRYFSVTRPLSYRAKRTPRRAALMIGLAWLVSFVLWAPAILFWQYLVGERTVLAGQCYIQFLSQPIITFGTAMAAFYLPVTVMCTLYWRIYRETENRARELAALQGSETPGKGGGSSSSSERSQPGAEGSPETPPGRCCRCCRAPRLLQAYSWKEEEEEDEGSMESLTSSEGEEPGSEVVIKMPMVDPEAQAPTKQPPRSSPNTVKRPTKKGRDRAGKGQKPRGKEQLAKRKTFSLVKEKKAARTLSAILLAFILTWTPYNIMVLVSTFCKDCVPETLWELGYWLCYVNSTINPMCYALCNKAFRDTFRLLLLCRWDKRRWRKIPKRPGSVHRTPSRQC
Procedure: (§1) CHO-K1 cells stably transfected with the human muscarinic receptor subtypes (hM1–5) were grown in Dulbecco’s modified Eagle’s medium (DMEM) with nutrient mixture F12 (DMEM/F12, 50/50), containing 10% fetal bovine serum, penicillin (100 U/mL), streptomycin (100 U/mL), L-glutamine (4 mM), and geneticin (G-418, 50 μg/mL) at 37 °C in a 5% CO2 humidified incubator. […] Serum (0.7 mL) was added to inactivate the trypsin, and the cells were spun down by centrifuging at 300g for 5 min. The cells were then resuspended in ice-cold 25 mM sodium phosphate buffer containing 5 mM MgCl2, pH 7.4 (binding buffer) and homogenized using a cell disrupter (Ultra-Turrax, setting 3, 30 s). The homogenate was sedimented by centrifugation (17,000g, 15 min). The supernatant was discarded, and the resulting membrane pellets were resuspended with Ultra-Turrax in the same buffer to give a final protein concentration of 1–2 mg/mL. The protein content was determined by the method of Bradford (1976) with bovine serum albumin (Sigma) as a standard and stored at −80 °C.
(§2) Inhibition radioligand binding assays were conducted as previously described[48],[49] with 0.2 nM [^3H]NMS in binding buffer in a final volume of 250 μL. Nonspecific binding was defined in the presence of 10 μM atropine. Briefly, membrane fractions (about 25–70 μg/mL of protein) were incubated with radioligand and unlabeled test compounds for 2 h at r.t. Bound and free radioactivity were separated by filtering the assay mixture through UniFilter GF/B plates using a FilterMate Cell Harvester (PerkinElmer Life and Analytical Science). The filter bound radioactivity was counted by a TopCount NXT Microplate Scintillation Counter (PerkinElmer Life and Analytical Science). Data (cpm) were normalized to percentage-specific binding and analyzed using a four-parameter logistic equation in GraphPad Prism 5.02; IC50 values were determined, and Ki values were calculated.[59]

hM2 mAChR = biological target: T2, hM2 mAChR (Homo sapiens, UniProt P08172); assay: [3H]NMS inhibition radioligand binding, hM2 in CHO-K1 cell membranes; conditions: [3H]NMS, CHO-K1 cell membranes, mean ± S.E.M.
T2 construct: expressed in transfected cells; host or cells: CHO-K1 (membrane preparation)
T2 sequence (P08172 1-466): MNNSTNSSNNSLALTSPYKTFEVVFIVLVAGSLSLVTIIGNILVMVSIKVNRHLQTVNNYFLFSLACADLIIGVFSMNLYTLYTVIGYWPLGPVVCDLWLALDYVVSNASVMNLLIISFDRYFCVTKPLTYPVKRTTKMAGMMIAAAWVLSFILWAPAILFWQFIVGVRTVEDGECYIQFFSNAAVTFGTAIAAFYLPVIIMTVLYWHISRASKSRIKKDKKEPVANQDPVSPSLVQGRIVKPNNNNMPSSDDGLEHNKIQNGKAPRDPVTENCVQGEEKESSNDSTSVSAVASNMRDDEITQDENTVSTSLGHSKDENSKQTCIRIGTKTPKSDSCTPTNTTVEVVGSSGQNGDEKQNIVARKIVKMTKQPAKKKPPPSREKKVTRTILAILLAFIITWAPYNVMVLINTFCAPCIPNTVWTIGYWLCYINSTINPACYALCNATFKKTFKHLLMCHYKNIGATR
Procedure: as §1, §2

hM3 mAChR = biological target: T3, hM3 mAChR (Homo sapiens, UniProt P20309); assay: [3H]NMS inhibition radioligand binding, hM3 in CHO-K1 cell membranes
T3 construct: expressed in transfected cells; host or cells: CHO-K1 (membrane preparation)
T3 sequence (P20309 whole entry): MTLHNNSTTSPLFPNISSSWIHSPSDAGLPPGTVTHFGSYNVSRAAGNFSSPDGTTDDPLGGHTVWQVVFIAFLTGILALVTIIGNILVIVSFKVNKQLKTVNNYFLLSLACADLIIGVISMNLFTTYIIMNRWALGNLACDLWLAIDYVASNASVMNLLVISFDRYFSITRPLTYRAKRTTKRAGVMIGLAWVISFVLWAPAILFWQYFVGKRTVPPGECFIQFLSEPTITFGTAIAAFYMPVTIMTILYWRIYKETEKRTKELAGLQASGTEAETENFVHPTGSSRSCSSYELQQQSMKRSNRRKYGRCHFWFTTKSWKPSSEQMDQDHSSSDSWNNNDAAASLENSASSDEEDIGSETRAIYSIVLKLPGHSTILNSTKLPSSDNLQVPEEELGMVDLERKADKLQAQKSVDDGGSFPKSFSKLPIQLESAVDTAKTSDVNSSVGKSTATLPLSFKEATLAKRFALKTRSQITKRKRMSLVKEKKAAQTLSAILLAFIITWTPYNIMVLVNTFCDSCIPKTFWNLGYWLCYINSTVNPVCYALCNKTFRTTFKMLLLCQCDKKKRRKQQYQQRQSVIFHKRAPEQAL
Procedure: as §1, §2

hM4 mAChR = biological target: T4, hM4 mAChR (Homo sapiens, UniProt P08173); assay: [3H]NMS inhibition radioligand binding, hM4 in CHO-K1 cell membranes; conditions: [3H]NMS, CHO-K1 cell membranes, mean ± S.E.M.
T4 construct: expressed in transfected cells; host or cells: CHO-K1 (membrane preparation)
T4 sequence (P08173 1-479): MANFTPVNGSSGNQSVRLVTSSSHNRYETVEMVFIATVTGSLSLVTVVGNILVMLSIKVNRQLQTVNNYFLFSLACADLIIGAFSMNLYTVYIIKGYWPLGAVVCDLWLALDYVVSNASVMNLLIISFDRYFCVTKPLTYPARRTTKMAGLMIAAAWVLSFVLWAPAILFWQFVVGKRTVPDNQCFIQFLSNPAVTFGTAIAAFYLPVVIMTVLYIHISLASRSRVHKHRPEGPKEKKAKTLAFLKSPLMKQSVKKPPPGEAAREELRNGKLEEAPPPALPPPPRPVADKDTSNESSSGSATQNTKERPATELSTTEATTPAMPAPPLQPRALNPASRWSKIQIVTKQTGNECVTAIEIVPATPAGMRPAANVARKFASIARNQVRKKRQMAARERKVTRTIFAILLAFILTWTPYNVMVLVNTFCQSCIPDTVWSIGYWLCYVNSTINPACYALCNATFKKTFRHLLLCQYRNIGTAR
Procedure: as §1, §2

hM5 mAChR = biological target: T5, hM5 mAChR (Homo sapiens, UniProt P08912); assay: [3H]NMS inhibition radioligand binding, hM5 in CHO-K1 cell membranes; conditions: [3H]NMS, CHO-K1 cell membranes, mean ± S.E.M.
T5 construct: expressed in transfected cells; host or cells: CHO-K1 (membrane preparation)
T5 sequence (P08912 1-532): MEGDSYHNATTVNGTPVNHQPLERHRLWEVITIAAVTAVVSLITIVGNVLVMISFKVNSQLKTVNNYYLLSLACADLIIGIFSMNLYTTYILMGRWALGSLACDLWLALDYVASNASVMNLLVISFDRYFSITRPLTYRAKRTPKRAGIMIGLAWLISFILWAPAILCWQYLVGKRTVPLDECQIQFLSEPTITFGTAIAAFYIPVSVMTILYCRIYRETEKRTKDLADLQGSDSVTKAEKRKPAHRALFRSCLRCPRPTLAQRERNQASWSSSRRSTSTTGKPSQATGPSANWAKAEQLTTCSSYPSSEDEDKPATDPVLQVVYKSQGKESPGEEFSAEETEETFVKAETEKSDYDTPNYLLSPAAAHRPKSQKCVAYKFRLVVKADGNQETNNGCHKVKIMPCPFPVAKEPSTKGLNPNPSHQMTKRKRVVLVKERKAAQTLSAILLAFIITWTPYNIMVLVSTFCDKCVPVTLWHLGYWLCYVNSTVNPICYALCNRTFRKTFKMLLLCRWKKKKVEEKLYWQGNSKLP
Procedure: as §1, §2

[1] = [3H]NMS, CHO-K1 cell membranes, mean ± S.E.M.

pKi hM1 (hM1 mAChR)	pKi hM2 (hM2 mAChR)	pKi hM3 (hM3 mAChR; [1])	pKi hM4 (hM4 mAChR)	pKi hM5 (hM5 mAChR)	Ki (hM1 mAChR; read-out: pKi hM1 (converted)) [µM]	Ki (hM2 mAChR; read-out: pKi hM2 (converted)) [µM]	Ki (hM3 mAChR; [3H]NMS, CHO-K1 cell membranes, mean ± S.E.M., read-out: pKi hM3 (converted)) [µM]	Ki (hM4 mAChR; read-out: pKi hM4 (converted)) [µM]	Ki (hM5 mAChR; read-out: pKi hM5 (converted)) [µM]	M3/M2 selectivity ratio (hM3 mAChR; from binding affinities at hM3 and hM2)	Compound
6.28 ± 0.08	5.87 ± 0.09	5.77 ± 0.03	5.60 ± 0.06	5.49 ± 0.06	–	–	–	–	–	–	C[N+](C)(C)C[C@@H]1CO[C@H](C(c2ccccc2)c2ccccc2)CO1.[I-] (relative stereo) [12a, 1-((2R*,5R*)-5-Benzhydryl-1,4-dioxan-2-yl)-N,N,N-trimethylmethanaminium Iodide]
–	–	–	–	–	0.0363	0.178	0.135	0.155	0.158	–	C[N+](C)(C)CC1COC(c2ccccc2)(c2ccccc2)CO1 (stereo not shown) [compound 10, 1-(5,5-Diphenyl-1,4-dioxan-2-yl)-N,N,N-trimethylmethanaminium Iodide]
5.29 ± 0.07	6.70 ± 0.01	5.63 ± 0.14	5.20 ± 0.07	5.80 ± 0.06	–	–	–	–	–	–	C[N+](C)(C)C[C@@H]1COC[C@@H](c2ccc(S(=O)(=O)c3ccccc3)cc2)O1.[I-] (relative stereo) [8b, 1-((2R*,6R*)-6-(4-(Phenylsulfonyl)phenyl)-1,4-dioxan-2-yl)-N,N,N-trimethylmethanaminium Iodide]
5.43 ± 0.09	6.70 ± 0.13	6.01 ± 0.11	5.70 ± 0.01	6.00 ± 0.14	–	–	–	–	–	–	C[N+](C)(C)C[C@@H]1CO[C@H](c2ccc(Sc3ccccc3)cc2)CO1.[I-] (relative stereo) [15a, 1-((2R*,5R*)-5-(4-(Phenylthio)phenyl)-1,4-dioxan-2-yl)-N,N,N-trimethylmethanaminium Iodide]
<5	6.39 ± 0.04	5.14 ± 0.10	<5	5.05 ± 0.08	–	–	–	–	–	–	C[N+](C)(C)C[C@@H]1CO[C@H](c2ccc(S(=O)(=O)c3ccccc3)cc2)CO1.[I-] (relative stereo) [17a, 1-((2R*,5R*)-5-(4-(Phenylsulfonyl)phenyl)-1,4-dioxan-2-yl)-N,N,N-trimethylmethanaminium Iodide]
5.85 ± 0.09	5.72 ± 0.09	5.33 ± 0.12	5.25 ± 0.08	5.34 ± 0.07	–	–	–	–	–	–	C[N+](C)(C)C[C@@H]1CO[C@@H](c2ccccc2)[C@H](c2ccccc2)O1.[I-] (relative stereo) [18a, 1-((2R*,5S*,6S*)-5,6-Diphenyl-1,4-dioxan-2-yl)-N,N,N-trimethylmethanaminium Iodide]
<5	5.52 ± 0.02	<5	<5	5.21 ± 0.08	–	–	–	–	–	–	C[N+](C)(C)C[C@@H]1COC[C@H](c2ccc([S+]([O-])c3ccccc3)cc2)O1.[I-] (relative stereo) [7a, 1-((2R*,6S*)-6-(4-(Phenylsulfinyl)phenyl)-1,4-dioxan-2-yl)-N,N,N-trimethylmethanaminium Iodide]

More lines, now with the values behind:

Compound	pKi hM1 (hM1 mAChR)	pKi hM2 (hM2 mAChR)	pKi hM3 (hM3 mAChR; [1])	pKi hM4 (hM4 mAChR)	pKi hM5 (hM5 mAChR)	Ki (hM1 mAChR; read-out: pKi hM1 (converted)) [µM]	Ki (hM2 mAChR; read-out: pKi hM2 (converted)) [µM]	Ki (hM3 mAChR; [3H]NMS, CHO-K1 cell membranes, mean ± S.E.M., read-out: pKi hM3 (converted)) [µM]	Ki (hM4 mAChR; read-out: pKi hM4 (converted)) [µM]	Ki (hM5 mAChR; read-out: pKi hM5 (converted)) [µM]	M3/M2 selectivity ratio (hM3 mAChR; from binding affinities at hM3 and hM2)
C[N+](C)(C)C[C@@H]1CO[C@@](c2ccccc2)(C2CCCCC2)CO1.[I-] (relative stereo) [11a, 1-((2R*,5R*)-5-Cyclohexyl-5-phenyl-1,4-dioxan-2-yl)-N,N,N-trimethylmethanaminium Iodide]	8.01 ± 0.06	7.26 ± 0.08	7.43 ± 0.09	7.15 ± 0.09	7.45 ± 0.08	–	–	–	–	–	–
CN(C)C[C@@H]1COC[C@](c2ccccc2)(C2CCCCC2)O1 (relative stereo) [33b, 1-((2R*,6R*)-6-Cyclohexyl-6-phenyl-1,4-dioxan-2-yl)-N,N-dimethylmethanamine]	8.86 ± 0.16	7.88 ± 0.08	8.72 ± 0.10	8.62 ± 0.12	8.62 ± 0.17	–	–	–	–	–	7.0
C[N+](C)(C)C[C@@H]1CO[C@H](c2ccccc2)CO1.[I-] (relative stereo) [9a, 1-((2R*,5R*)-5-Phenyl-1,4-dioxan-2-yl)-N,N,N-trimethylmethanaminium Iodide]	5.63 ± 0.07	5.06 ± 0.10	5.14 ± 0.10	5.10 ± 0.07	<5	–	–	–	–	–	–
C[N+](C)(C)C[C@@H]1CO[C@@H](c2ccccc2)CO1.[I-] (relative stereo) [9b, 1-((2R*,5S*)-5-Phenyl-1,4-dioxan-2-yl)-N,N,N-trimethylmethanaminium Iodide]	<5	<5	<5	<5	<5	–	–	–	–	–	–
C[N+](C)(C)C[C@@H]1CO[C@](c2ccccc2)(C2CCCCC2)CO1.[I-] (relative stereo) [11b, 1-((2R*,5S*)-5-Cyclohexyl-5-phenyl-1,4-dioxan-2-yl)-N,N,N-trimethylmethanaminium Iodide]	7.81 ± 0.04	7.22 ± 0.11	7.36 ± 0.10	7.23 ± 0.10	7.32 ± 0.09	–	–	–	–	–	–
